Reference: ChEMBL document CHEMBL5038598, “Design and Synthesis of Pyrrolo[2,3-d]pyrimidine-Derived Leucine-Rich Repeat Kinase 2 (LRRK2) Inhibitors Using a Checkpoint Kinase 1 (CHK1)-Derived Crystallographic Surrogate” (J Med Chem, 2021)

Legend:
[1] = biological target: Receptor-type tyrosine-protein kinase FLT3 (Homo sapiens, UniProt P36888, D835V/ITD); experiment: Binding affinity to human FLT3 ITD, D835V (V592/Y969) mutant expressed in mammalian system assessed as dissociation constant measured at 1 uM by DiscoveRx KINOMEscan assay
[2] = Ratio of drug level in Md1a/1b C57BL/6 mouse brain to plasma at 5 mg/kg, sc and measured after 0.5 hrs; type: ADME, organism-based
[3] = biological target: T1, Phosphatidylinositol 4-kinase beta (Homo sapiens, UniProt Q9UBF8); experiment: Inhibition of PI4KB expressed in human PBMCs measured at 10 uM by KiNativ profiling analysis relative to control
[4] = biological target: T1, Phosphatidylinositol 4-kinase beta; experiment: Inhibition of human PIK4CB (M1/M828) WT expressed in mammalian system assessed as remaining activity measured at 1 uM by DiscoveRx KINOMEscan assay relative to control
P-glycoprotein (human) = experiment: Apparent permeability in MDCK-MDR1 cells expressing human P-glycoprotein; type: ADME, cell-based, Canis lupus familiaris; details: dog
[5] = Drug uptake in C57BL/6 WT mouse brain at 5 mg/kg, sc and measured after 0.5 hrs; type: ADME, organism-based; details: C57BL/6, mouse, read-out: Drug uptake
[6] = Drug uptake in C57BL/6 WT mouse plasma at 5 mg/kg, sc and measured after 0.5 hrs; type: ADME, organism-based; details: C57BL/6, mouse
[7] = biological target: Leucine-rich repeat serine/threonine-protein kinase 2 (Homo sapiens, UniProt Q5S007); experiment: Binding affinity to human LRRK2 WT expressed in mammalian system assessed as dissociation constant measured at 1 uM by DiscoveRx KINOMEscan assay
[8] = Ratio of unbound drug level in Md1a deficient C57BL/6 mouse brain to plasma at 5 mg/kg, sc and measured after 1 hrs; type: ADME, organism-based
[9] = Drug uptake in Mdr1a deficient C57BL/6 mouse brain at 5 mg/kg, sc and measured after 1 hrs; type: ADME, organism-based; details: read-out: Drug uptake
[10] = Drug uptake in Mdr1a deficient C57BL/6 mouse plasma at 5 mg/kg, sc and measured after 1 hrs; type: ADME, organism-based
[11] = Ratio of drug level in Mdr1A deficient C57BL/6 mouse brain to plasma at 5 mg/kg, sc and measured after 1 hrs; type: ADME, organism-based
BCRP (human) [12] = experiment: Efflux ratio of apparent permeability in MDCK cells expressing human BCRP; type: ADME, cell-based, Canis lupus familiaris; details: dog
[13] = biological target: T2, Adenosine receptor A2b (Homo sapiens) (UniProt P29275); experiment: Binding affinity to human Adenosine receptor A2b at 1 uM by radioligand binding assay relative to control
T2 sequence (whole entry): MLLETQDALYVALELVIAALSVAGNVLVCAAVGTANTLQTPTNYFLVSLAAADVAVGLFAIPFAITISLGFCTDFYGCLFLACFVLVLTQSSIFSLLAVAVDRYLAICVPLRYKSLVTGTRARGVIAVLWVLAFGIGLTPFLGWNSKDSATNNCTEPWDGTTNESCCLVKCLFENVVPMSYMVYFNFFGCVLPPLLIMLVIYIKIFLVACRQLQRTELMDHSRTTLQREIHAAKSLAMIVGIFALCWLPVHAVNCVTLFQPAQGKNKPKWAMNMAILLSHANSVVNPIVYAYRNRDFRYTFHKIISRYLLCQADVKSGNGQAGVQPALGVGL

[14] = Ratio of drug level in C57BL/6 WT mouse brain to plasma at 5 mg/kg, sc and measured after 1 hrs; type: ADME, organism-based; details: C57BL/6, mouse
[15] = Ratio of unbound drug level in C57BL/6 WT mouse brain to plasma measured at 5 mg/kg, sc and measured after 1 hrs; type: ADME, organism-based; details: C57BL/6, mouse
[16] = Drug uptake in C57BL/6 WT mouse plasma at 5 mg/kg, sc and measured after 1 hrs; type: ADME, organism-based; details: C57BL/6, mouse
BCRP (human) [17] = experiment: Apparent permeability in MDCK cells expressing human BCRP; type: ADME, cell-based, Canis lupus familiaris; details: dog
[18] = Drug uptake in C57BL/6 WT mouse brain at 5 mg/kg, sc and measured after 1 hrs; type: ADME, organism-based; details: C57BL/6, mouse, read-out: Drug uptake
[19] = Drug uptake in mdrla-deficient C57BL/6 mouse plasma at 5 mg/kg, sc and measured after 0.5 hrs; type: ADME, organism-based
[20] = Ratio of unbound drug level in Md1a deficient C57BL/6 mouse brain to plasma at 5 mg/kg, sc and measured after 0.5 hrs; type: ADME, organism-based
[21] = Drug uptake in P-gp la-deficient C57BL/6 mouse brain at 5 mg/kg, sc and measured after 0.5 hrs; type: ADME, organism-based; details: read-out: Drug uptake
[22] = Ratio of drug level in Mdr1A deficient C57BL/6 mouse brain to plasma at 5 mg/kg, sc and measured after 0.5 hrs; type: ADME, organism-based

T1 sequence (Q9UBF8 2-816 limits assumed): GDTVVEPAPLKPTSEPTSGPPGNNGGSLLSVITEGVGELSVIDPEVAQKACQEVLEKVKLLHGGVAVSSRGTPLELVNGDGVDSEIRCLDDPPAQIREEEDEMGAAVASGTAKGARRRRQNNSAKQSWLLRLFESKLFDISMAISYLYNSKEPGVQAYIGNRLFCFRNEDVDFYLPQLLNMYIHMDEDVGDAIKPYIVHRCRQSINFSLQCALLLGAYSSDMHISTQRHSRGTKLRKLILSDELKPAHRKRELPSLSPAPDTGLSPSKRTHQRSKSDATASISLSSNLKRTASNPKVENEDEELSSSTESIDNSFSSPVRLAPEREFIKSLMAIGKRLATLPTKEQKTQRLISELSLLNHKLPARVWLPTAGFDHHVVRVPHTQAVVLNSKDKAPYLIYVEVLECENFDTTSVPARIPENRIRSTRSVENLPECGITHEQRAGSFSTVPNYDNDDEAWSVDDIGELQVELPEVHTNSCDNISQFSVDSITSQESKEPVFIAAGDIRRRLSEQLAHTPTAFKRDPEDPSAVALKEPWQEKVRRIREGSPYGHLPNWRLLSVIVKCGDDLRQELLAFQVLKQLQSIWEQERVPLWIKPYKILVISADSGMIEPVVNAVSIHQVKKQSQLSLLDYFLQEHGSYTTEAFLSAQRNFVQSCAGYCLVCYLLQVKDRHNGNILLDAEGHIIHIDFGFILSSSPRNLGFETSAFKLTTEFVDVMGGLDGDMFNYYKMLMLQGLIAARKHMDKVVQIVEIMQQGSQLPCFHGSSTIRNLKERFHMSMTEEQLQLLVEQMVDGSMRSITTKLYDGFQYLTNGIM
Sequence of Leucine-rich repeat serine/threonine-protein kinase 2 (Q5S007 whole entry): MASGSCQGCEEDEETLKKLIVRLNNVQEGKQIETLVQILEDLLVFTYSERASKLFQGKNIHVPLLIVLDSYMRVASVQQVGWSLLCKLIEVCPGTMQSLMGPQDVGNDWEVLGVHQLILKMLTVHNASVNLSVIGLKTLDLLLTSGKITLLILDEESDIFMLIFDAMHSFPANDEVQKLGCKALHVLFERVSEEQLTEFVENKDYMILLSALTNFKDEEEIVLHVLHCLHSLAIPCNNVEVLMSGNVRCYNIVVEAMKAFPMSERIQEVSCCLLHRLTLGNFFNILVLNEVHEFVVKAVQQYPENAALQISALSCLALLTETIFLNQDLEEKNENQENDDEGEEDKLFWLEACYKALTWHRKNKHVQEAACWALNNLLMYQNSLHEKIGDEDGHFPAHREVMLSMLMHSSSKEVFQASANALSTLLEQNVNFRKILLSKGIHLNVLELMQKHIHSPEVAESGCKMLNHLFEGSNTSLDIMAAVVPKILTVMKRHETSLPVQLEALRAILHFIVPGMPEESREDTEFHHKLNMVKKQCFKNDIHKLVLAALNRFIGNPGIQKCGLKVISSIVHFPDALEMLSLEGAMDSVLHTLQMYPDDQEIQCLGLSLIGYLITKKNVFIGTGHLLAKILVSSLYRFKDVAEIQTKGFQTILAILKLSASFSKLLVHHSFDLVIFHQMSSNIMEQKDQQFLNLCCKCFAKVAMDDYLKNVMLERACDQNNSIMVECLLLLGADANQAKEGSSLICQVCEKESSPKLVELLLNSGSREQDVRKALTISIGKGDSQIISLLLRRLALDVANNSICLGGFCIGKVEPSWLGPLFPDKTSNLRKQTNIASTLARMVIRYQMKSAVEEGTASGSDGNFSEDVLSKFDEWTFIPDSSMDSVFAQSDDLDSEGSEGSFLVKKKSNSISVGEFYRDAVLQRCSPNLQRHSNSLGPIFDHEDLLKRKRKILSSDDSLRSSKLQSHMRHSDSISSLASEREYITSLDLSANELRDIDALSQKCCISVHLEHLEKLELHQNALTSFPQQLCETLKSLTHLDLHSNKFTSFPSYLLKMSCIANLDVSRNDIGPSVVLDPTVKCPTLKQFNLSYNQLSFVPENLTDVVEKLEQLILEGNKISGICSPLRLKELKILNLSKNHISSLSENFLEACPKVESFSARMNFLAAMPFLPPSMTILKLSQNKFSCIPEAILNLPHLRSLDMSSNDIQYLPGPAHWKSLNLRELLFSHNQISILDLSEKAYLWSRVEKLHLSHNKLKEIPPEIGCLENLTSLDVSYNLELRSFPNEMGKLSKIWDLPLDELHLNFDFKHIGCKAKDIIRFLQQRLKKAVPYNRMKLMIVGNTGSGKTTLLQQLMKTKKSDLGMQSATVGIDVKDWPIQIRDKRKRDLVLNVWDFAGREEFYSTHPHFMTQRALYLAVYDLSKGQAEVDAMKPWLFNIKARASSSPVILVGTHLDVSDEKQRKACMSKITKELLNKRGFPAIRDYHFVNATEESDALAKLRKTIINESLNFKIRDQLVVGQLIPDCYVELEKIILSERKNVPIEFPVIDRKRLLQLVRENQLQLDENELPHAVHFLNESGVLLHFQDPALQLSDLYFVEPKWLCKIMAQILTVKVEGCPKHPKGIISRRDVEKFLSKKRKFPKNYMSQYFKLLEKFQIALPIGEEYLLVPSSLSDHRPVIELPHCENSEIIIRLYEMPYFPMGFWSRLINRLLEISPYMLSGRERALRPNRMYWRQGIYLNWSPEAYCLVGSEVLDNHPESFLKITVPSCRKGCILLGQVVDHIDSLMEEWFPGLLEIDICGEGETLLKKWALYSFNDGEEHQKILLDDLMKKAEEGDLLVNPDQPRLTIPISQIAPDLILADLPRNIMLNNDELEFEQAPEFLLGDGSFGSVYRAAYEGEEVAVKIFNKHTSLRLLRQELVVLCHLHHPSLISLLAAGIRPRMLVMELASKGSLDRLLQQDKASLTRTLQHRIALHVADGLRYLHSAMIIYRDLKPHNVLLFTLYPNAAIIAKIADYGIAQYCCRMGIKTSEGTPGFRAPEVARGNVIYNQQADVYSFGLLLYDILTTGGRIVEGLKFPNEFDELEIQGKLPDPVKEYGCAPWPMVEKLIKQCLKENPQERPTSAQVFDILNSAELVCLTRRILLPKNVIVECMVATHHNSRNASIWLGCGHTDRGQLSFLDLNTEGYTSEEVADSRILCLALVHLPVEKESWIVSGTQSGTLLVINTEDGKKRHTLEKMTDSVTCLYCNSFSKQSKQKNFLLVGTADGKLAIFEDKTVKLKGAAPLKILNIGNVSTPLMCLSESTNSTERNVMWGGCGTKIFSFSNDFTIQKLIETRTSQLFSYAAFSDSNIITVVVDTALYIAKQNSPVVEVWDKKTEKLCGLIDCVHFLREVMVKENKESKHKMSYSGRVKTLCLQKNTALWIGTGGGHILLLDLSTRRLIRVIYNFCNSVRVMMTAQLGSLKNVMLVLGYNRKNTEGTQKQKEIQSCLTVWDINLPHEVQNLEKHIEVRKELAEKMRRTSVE

SMILES | Kd [1] [µM] | Kp at 0.5 h [2] | inhibition [3] [%] | Activity [4] [%] | Papp (P-glycoprotein (human)) [×10⁻⁶ cm/s] | Kd [7] [µM] | efflux ratio (BCRP (human) [12]) | inhibition [13] [%] | Papp (BCRP (human) [17]) [×10⁻⁶ cm/s] | further results
Cc1c(Nc2nc(N)c3c(C#N)c(N4CCC[C@H]4C)n(C)c3n2)cnn1[C@H]1CCOC1 | 0.067 | 0.65 | 29 | < 37 | 4.3 | 0.0066 | 22 | 26 | 1.2 | concentration at 0.5 h [5]: 73 ng/g; concentration at 0.5 h [6]: 1610 ng/mL; Kp uu at 1 h [8]: 0.056; concentration at 1 h [9]: 675 ng/g; concentration at 1 h [10]: 100 ng/mL; Kp at 1 h [11]: 0.15; Kp at 1 h [14]: 0.04; Kp uu at 1 h [15]: 0.014; concentration at 1 h [16]: 440 ng/mL; concentration at 1 h [18]: 17 ng/g
Cc1c(Nc2nc(N)c3c(C#N)c(N4CCC[C@H]4C)n(C)c3n2)cnn1[C@@H]1CCOC1 | 0.47 | 1.05 | 45 | < 37 | 4.6 | 0.0037 | 34 | 18 | 0.7 | concentration at 0.5 h [19]: 2140 ng/mL; Kp uu at 0.5 h [20]: 0.11; concentration at 0.5 h [21]: 256 ng/g; Kp at 0.5 h [22]: 0.31
